Laboratory results from US9024044B2, “Heteroarylcarboxylic acid ester derivative” (Ajinomoto Co., Inc., priority 2012, dated 2015).

Tests used:
human trypsin = experiment: Measurement of trypsin inhibitory activity; type: biochemical; details: substrate Boc-Phe-Ser-Arg-AMC, Tris-HCl pH 8.0, Dixon plot
Protocol: Measurement of Trypsin Inhibitory Activity
Using a 96 well plate (#3915, Costar), a test compound (25 μL) was mixed with 20 μM fluorescence enzyme substrate (Boc-Phe-Ser-Arg-AMC, 50 μL) mixed with 200 mM Tris-HCl buffer (pH 8.0), and human trypsin (Sigma, 25 μL) was added. Using a fluorescence plate reader fmax (Molecular Devices, Inc.), the reaction rate was measured from the time-course changes at excitation wavelength 355 nm and fluorescence wavelength 460 nm. The Ki value was calculated from the concentration of the test compound, reciprocal of reaction rate, and Km value of the enzyme substrate, and by using Dixon plot.

[1] = biological target: recombinant human enteropeptidase (Homo sapiens (Human), UniProt P98073); experiment: Measurement of enteropeptidase inhibitory activity; type: biochemical; details: substrate Gly-Asp-Asp-Asp-Asp-Lys-β-Naphtylamide, Tris-HCl pH 8.0, Dixon plot
Protocol: Measurement of Enteropeptidase Inhibitory Activity
Using a 96 well plate (#3915, Costar), a test compound (25 μL), 400 mM Tris-HCl buffer (pH 8.0, 25 μL) and 0.5 mg/mL fluorescence enzyme substrate (Gly-Asp-Asp-Asp-Asp-Lys-β-Naphtylamide, 25 μL) were mixed, and recombinant human enteropeptidase (R&D Systems, Inc., 25 μL) was added. Using a fluorescence plate reader fmax (Molecular Devices, Inc.), the reaction rate was measured from the time-course changes at excitation wavelength 320 nm and fluorescence wavelength 405 nm. The Ki value was calculated from the concentration of the test compound, reciprocal of reaction rate, and Km value of the enzyme substrate, and by using Dixon plot.

Chain of recombinant human enteropeptidase (P98073 whole entry): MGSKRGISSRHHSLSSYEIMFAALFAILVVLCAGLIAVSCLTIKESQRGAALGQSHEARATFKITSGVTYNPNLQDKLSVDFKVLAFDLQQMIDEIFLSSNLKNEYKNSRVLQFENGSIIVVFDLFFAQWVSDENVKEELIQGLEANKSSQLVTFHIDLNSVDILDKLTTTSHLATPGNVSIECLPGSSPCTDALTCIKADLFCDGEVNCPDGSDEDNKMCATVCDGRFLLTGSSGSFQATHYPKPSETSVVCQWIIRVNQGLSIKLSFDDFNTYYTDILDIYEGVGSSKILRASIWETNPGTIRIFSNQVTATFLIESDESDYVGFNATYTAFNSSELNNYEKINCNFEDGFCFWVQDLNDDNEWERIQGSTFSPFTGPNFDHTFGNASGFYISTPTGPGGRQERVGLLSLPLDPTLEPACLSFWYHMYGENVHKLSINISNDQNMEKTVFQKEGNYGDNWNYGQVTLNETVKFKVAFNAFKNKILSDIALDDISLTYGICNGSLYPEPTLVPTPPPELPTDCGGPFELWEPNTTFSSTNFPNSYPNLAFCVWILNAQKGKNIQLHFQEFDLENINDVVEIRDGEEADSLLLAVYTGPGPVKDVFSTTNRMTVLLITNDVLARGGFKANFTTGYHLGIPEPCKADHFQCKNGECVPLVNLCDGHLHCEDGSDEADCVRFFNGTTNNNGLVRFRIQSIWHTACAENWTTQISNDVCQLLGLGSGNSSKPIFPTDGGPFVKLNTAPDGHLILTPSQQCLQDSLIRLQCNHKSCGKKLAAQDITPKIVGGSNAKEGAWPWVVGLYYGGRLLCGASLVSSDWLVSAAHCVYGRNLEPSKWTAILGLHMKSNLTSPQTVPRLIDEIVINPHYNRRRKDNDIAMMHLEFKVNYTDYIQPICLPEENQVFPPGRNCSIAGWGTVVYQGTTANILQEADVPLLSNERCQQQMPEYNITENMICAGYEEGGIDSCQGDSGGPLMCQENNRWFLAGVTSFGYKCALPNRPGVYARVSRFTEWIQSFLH

| SMILES | Ki (human trypsin) [nM] | Ki [1] [nM] |
| --- | --- | --- |
| CC(C)(Cc1ccc(C(=O)Oc2ccc(C(=N)N)cc2F)s1)C(=O)NCCC#N [Compound 63] | 3.65 | 2.9 |
| CC(C)(Cc1ccc(C(=O)Oc2ccc(C(=N)N)cc2F)s1)C(=O)NCc1nnn[nH]1 [Compound 65] | 0.75 | 0.53 |
| CC(C)(Cc1ccc(C(=O)Oc2ccc(C(=N)N)cc2F)s1)C(=O)N(CC(=O)O)CC1CC1 [Compound 76] | 2.01 | 0.67 |
| CCC(CC)(Cc1ccc(C(=O)Oc2ccc(C(=N)N)cc2F)s1)C(=O)NCC(=O)NCC(=O)O [Compound 77] | 1.42 | 0.69 |
| CCC(CC)(Cc1ccc(C(=O)Oc2ccc(C(=N)N)cc2F)s1)C(=O)NC1(C(=O)O)CCC1 [Compound 80] | 4.67 | 1.33 |
| CCC(CC)(Cc1ccc(C(=O)Oc2ccc(C(=N)N)cc2F)s1)C(=O)NCc1nnn[nH]1 [Compound 81] | 3.54 | 1.2 |
